From US12295936B2, “Immunomodulating urea azalides” (Zoetis Services LLC, priority 2020, dated 2025)
Read-outs that look alike come from different tables or passages of the source.

Legend:
Assay in all cases: LPS-stimulated whole bovine blood assay, MSD cytokine detection
Format in all cases: cell-based
[1] = system: TNF-α; conditions: LPS-stimulated bovine whole blood, read-out: TNF-α (IC50 μM)
Description: (§1) Therefore, a fresh whole bovine blood assay was developed with LPS as a stimulant (TLR-4 agonist) and with IL-1β and TNF-α as the read-out. Compounds of the invention were evaluated against a positive control for their ability to inhibit LPS-induced IL-1β and TNF-α as an overall evaluation of relative potency and modulation of target pathways (Table 6).
In the bovine whole blood in vitro screening assay the inhibition of TNFα as induced by stimulation by lipopolysaccharide (LPS) and as measured by half the maximal inhibitory concentration (IC50) is recognized as the primary biomarker of immunomodulation potency upon pretreatment with the compounds of the invention. IL-1β is a mediator of the inflammation response and is involved in a number of cellular activities including proliferation, differentiation and apoptosis. IL-1β is also released upon cellular stress or cytotoxicity or upon TLR stimulation. In the bovine whole blood assay the stimulation of IL-1β release upon increasing concentration of test compound is seen as a potential cellular toxicity signal as induced by the test compound. In order to estimate a therapeutic index from the in vitro assay a differential between the TNFα IC50 (immunomodulation potency) versus the perceived cellular toxicity concentration (IL-1β release or overstimulation) was utilized.

[2] = system: IL-6; conditions: LPS-stimulated bovine whole blood, read-out: IL-6 (IC50 μM)
Excerpt: (§2) In order to correlate RNA sequencing data to cytokine changes the whole blood assay was utilized. […] The enhancement result represents an overall stimulation of cytokine levels due to cellular stress or potential toxicity with increasing concentrations of the compound, representing a typical bell shape response curve for immunomodulatory activity.

[3] = system: IL-1β; conditions: overstimulation of IL-1β, LPS-stimulated bovine whole blood
Description: as §1, with “The effect of multiple cytokines was not easily quantified using single cell types. Therefore,” for “Therefore,”
as §2
In the bovine whole blood in vitro screening assay the inhibition of TNFα as induced by stimulation by lipopolysaccharide (LPS) and as measured by half the maximal inhibitory concentration (IC50) is recognized as the primary biomarker of immunomodulation potency upon pretreatment with the compounds of the invention.

| Compound | IC50 ([1]; Bos taurus) [µM] | IC50 ([2]; Bos taurus) [µM] | IL-1β OS of LPS [3] [µM] | IC50 [1] [µM] | IC50 [2] [µM] |
| --- | --- | --- | --- | --- | --- |
| 1-((2S,3R,4S,6R)-2-(((2R,3S,4R,5R,8R,10R,11R,12S,13S,14R)-13-(((2R,4R,5S,6S)-5-(ethoxymethyl)-5-hydroxy-4-methoxy-4,6-dimethyltetrahydro-2H-pyran-2-yl)oxy)-2-ethyl-3,4,10-trihydroxy-3,5,8,10,12,14-hexamethyl-15-oxo-1-oxa-6-azacyclopentadecan-11-yl)oxy)-3-hydroxy-6-methyltetrahydro-2H-pyran-4-yl)-1,3-dimethyl-3-phenylurea [Example C-2] |  |  | 100 | 200 | 100 |
| CC[C@H]1OC(=O)[C@H](C)[C@@H](O[C@H]2C[C@@](C)(OC)[C@](O)(CNCCCN3CCCCC3)[C@H](C)O2)[C@H](C)[C@@H](O[C@@H]2O[C@H](C)C[C@H](N(C)C(=O)N(C)c3ccccc3)[C@H]2O)[C@](C)(O)C[C@@H](C)CN[C@H](C)[C@@H](O)[C@]1(C)O [Example H-38, 1-((2S,3R,4S,6R)-2-(((2R,3S,4R,5R,8R,10R,11R,12S,13S,14R)-2-ethyl-3,4,10-trihydroxy-13-(((2R,4R,5S,6S)-5-hydroxy-4-methoxy-4,6-dimethyl-5-(((3-(piperidin-1-yl)propyl)amino)methyl)tetrahydro-2H-pyran-2-yl)oxy)-3,5,8,10,12,14-hexamethyl-15-oxo-1-oxa-6-azacyclopentadecan-11-yl)oxy)-3-hydroxy-6-methyltetrahydro-2H-pyran-4-yl)-1,3-dimethyl-3-phenylurea] | 49 | 36 | >250 |  |  |
| CC[C@H]1OC(=O)[C@H](C)[C@@H](O[C@H]2C[C@@](C)(OC)[C@H](O)[C@H](C)O2)[C@H](C)[C@@H](O[C@@H]2O[C@H](C)C[C@H](N(C)C(=O)N(C)c3ccccc3)[C@H]2O)[C@](C)(O)C[C@@H](C)CN[C@H](C)[C@@H](O)[C@]1(C)O [Example B-3a, 1-((2S,3R,4S,6R)-2-(((2R,3S,4R,5R,8R,10R,11R,12S,13S,14R)-2-ethyl-3,4,10-trihydroxy-13-(((2R,4R,5R,6S)-5-hydroxy-4-methoxy-4,6-dimethyltetrahydro-2H-pyran-2-yl)oxy)-3,5,8,10,12,14-hexamethyl-15-oxo-1-oxa-6-azacyclopentadecan-11-yl)oxy)-3-hydroxy-6-methyltetrahydro-2H-pyran-4-yl)-1,3-dimethyl-3-phenylurea] | 12 | 26 | 16 |  |  |
| CC[C@H]1OC(=O)[C@H](C)[C@@H](O[C@H]2C[C@@](C)(OC)[C@H](O)[C@H](C)O2)[C@H](C)[C@@H](O[C@@H]2O[C@H](C)C[C@H](N(C)C(=O)N(C)c3ccc(C(F)(F)F)cc3)[C@H]2O)[C@](C)(O)C[C@@H](C)CN[C@H](C)[C@@H](O)[C@]1(C)O [Example B-2a, 1-((2S,3R,4S,6R)-2-(((2R,3S,4R,5R,8R,10R,11R,12S,13S,14R)-2-ethyl-3,4,10-trihydroxy-13-(((2R,4R,5R,6S)-5-hydroxy-4-methoxy-4,6-dimethyltetrahydro-2H-pyran-2-yl)oxy)-3,5,8,10,12,14-hexamethyl-15-oxo-1-oxa-6-azacyclopentadecan-11-yl)oxy)-3-hydroxy-6-methyltetrahydro-2H-pyran-4-yl)-1,3-dimethyl-3-(4-(trifluoromethyl)phenyl)urea] | 9 | 23 | 16 |  |  |
| CCCNC[C@]1(O)[C@H](C)O[C@@H](O[C@H]2[C@H](C)[C@@H](O[C@@H]3O[C@H](C)C[C@H](N(CC(C)C)C(=O)N(C)c4ccccc4)[C@H]3O)[C@](C)(O)C[C@@H](C)CN[C@H](C)[C@@H](O)[C@](C)(O)[C@@H](CC)OC(=O)[C@@H]2C)C[C@@]1(C)OC [Example H-70, 1-((2S,3R,4S,6R)-2-(((2R,3S,4R,5R,8R,10R,11R,12S,13S,14R)-2-ethyl-3,4,10-trihydroxy-13-(((2R,4R,5S,6S)-5-hydroxy-4-methoxy-4,6-dimethyl-5-((propylamino)methyl)tetrahydro-2H-pyran-2-yl)oxy)-3,5,8,10,12,14-hexamethyl-15-oxo-1-oxa-6-azacyclopentadecan-11-yl)oxy)-3-hydroxy-6-methyltetrahydro-2H-pyran-4-yl)-1-isobutyl-3-methyl-3-phenylurea] | 13 | 4 | 6 |  |  |
| CC[C@H]1OC(=O)[C@H](C)[C@@H](O[C@H]2C[C@@](C)(OC)[C@@H](O)[C@H](C)O2)[C@H](C)[C@@H](O[C@@H]2O[C@H](C)C[C@H](N(C)C(=O)N(C)c3ccccc3)[C@H]2O)[C@](C)(O)C[C@@H](C)CN[C@H](C)[C@@H](O)[C@]1(C)O [Example B-3, 1-((2S,3R,4S,6R)-2-(((2R,3S,4R,5R,8R,10R,11R,12S,13S,14R)-2-ethyl-3,4,10-trihydroxy-13-(((2R,4R,5S,6S)-5-hydroxy-4-methoxy-4,6-dimethyltetrahydro-2H-pyran-2-yl)oxy)-3,5,8,10,12,14-hexamethyl-15-oxo-1-oxa-6-azacyclopentadecan-11-yl)oxy)-3-hydroxy-6-methyltetrahydro-2H-pyran-4-yl)-1,3-dimethyl-3-phenylurea] | 37 | 65 | 40 |  |  |

Second part, led by results:

| IC50 ([1]; Bos taurus) [µM] | IC50 ([2]; Bos taurus) [µM] | Compound | IL-1β OS of LPS [3] [µM] | IC50 [1] [µM] | IC50 [2] [µM] |
| --- | --- | --- | --- | --- | --- |
| > 500 | > 500 | CCNC(=O)N(C)[C@H]1C[C@@H](C)O[C@@H](O[C@@H]2[C@@H](C)[C@H](O[C@H]3C[C@@](C)(OC)[C@](O)(CN4CCN(C)CC4)[C@H](C)O3)[C@@H](C)C(=O)O[C@H](CC)[C@@](C)(O)[C@H](O)[C@@H](C)NC[C@H](C)C[C@@]2(C)O)[C@@H]1O [Example J-2, 3-ethyl-1-((2S,3R,4S,6R)-2-(((2R,3S,4R,5R,8R,10R,11R,12S,13S,14R)-2-ethyl-3,4,10-trihydroxy-13-(((2R,4R,5S,6S)-5-hydroxy-4-methoxy-4,6-dimethyl-5-((4-methylpiperazin-1-yl)methyl)tetrahydro-2H-pyran-2-yl)oxy)-3,5,8,10,12,14-hexamethyl-15-oxo-1-oxa-6-azacyclopentadecan-11-yl)oxy)-3-hydroxy-6-methyltetrahydro-2H-pyran-4-yl)-1-methylurea] | >500 |  |  |
| 225 | > 500 | CC[C@H]1OC(=O)[C@H](C)[C@@H](O[C@H]2C[C@@](C)(OC)[C@](O)(CN3CCN(C)CC3)[C@H](C)O2)[C@H](C)[C@@H](O[C@@H]2O[C@H](C)C[C@H](N(C)C(=O)Nc3ccc(N(C)C)cc3)[C@H]2O)[C@](C)(O)C[C@@H](C)CN[C@H](C)[C@@H](O)[C@]1(C)O [Example J-6, 3-(4-(dimethylamino)phenyl)-1-((2S,3R,4S,6R)-2-(((2R,3S,4R,5R,8R,10R,11R,12S,13S,14R)-2-ethyl-3,4,10-trihydroxy-13-(((2R,4R,5S,6S)-5-hydroxy-4-methoxy-4,6-dimethyl-5-((4-methylpiperazin-1-yl)methyl)tetrahydro-2H-pyran-2-yl)oxy)-3,5,8,10,12,14-hexamethyl-15-oxo-1-oxa-6-azacyclopentadecan-11-yl)oxy)-3-hydroxy-6-methyltetrahydro-2H-pyran-4-yl)-1-methylurea] | >500 |  |  |
| > 250 | 47 | CCCNC[C@]1(O)[C@H](C)O[C@@H](O[C@H]2[C@H](C)[C@@H](O[C@@H]3O[C@H](C)C[C@H](N(C)C(=O)Nc4ccccc4C)[C@H]3O)[C@](C)(O)C[C@@H](C)CN[C@H](C)[C@@H](O)[C@](C)(O)[C@@H](CC)OC(=O)[C@@H]2C)C[C@@]1(C)OC [Example H-81, 1-((2S,3R,4S,6R)-2-(((2R,3S,4R,5R,8R,10R,11R,12S,13S,14R)-2-ethyl-3,4,10-trihydroxy-13-(((2R,4R,5S,6S)-5-hydroxy-4-methoxy-4,6-dimethyl-5-((propylamino)methyl)tetrahydro-2H-pyran-2-yl)oxy)-3,5,8,10,12,14-hexamethyl-15-oxo-1-oxa-6-azacyclopentadecan-11-yl)oxy)-3-hydroxy-6-methyltetrahydro-2H-pyran-4-yl)-1-methyl-3-(o-tolyl)urea] | 39 |  |  |
